Measurements reported in the supplement of paper PMC11061612.

How the values were obtained:
Test in all cases: Bliss excess, mean over the matrix (fraction); higher = more synergy
[1] = test system: NCI-H2087 (Lung Adenocarcinoma)
Method in brief: (§1)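 After 24 hours at 37°C and 5% CO2 in 1536-well plates, cells in DMEM/F12 or RPMI plus 10% FBS received two-drug dose matrices for 72 hours. Viability came from CellTiter-Glo 2.0 luminescence and was scaled as inhibition, anchored at 0 by vehicle wells and at 1 by blank wells. Combination Emax is taken as the second-highest inhibition in the matrix, and Bliss excess as the observed combination effect less EA + EB − EA·EB, with EA and EB the single-agent effects.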

[2] = test system: JHU-022 (Oral Cavity Carcinoma)
Method in brief: as §1

HCC70 (Breast Carcinoma) = test system: HCC70 (Breast Carcinoma)
Method in brief: as §1

WM1552C (Melanoma) = test system: WM1552C (Melanoma)
Method in brief: as §1

[3] = test system: A2780 (Ovarian Carcinoma)
Method in brief: as §1

[4] = test system: SW620 (Colorectal Carcinoma)
Method in brief: as §1

[5] = test system: 22RV1 (Prostate Carcinoma)
Method in brief: as §1

[6] = test system: HCC1395 (Breast Carcinoma)
Method in brief: as §1

[7] = test system: HCC1428 (Breast Carcinoma)
Method in brief: as §1

[8] = test system: LS-411N (Colorectal Carcinoma)
Method in brief: as §1

[9] = test system: DMS-53 (Small Cell Lung Carcinoma)
Method in brief: as §1

SMILES	Bliss excess [1]	Bliss excess [2]	Bliss excess (HCC70 (Breast Carcinoma))	Bliss excess (WM1552C (Melanoma))	Bliss excess [3]	Bliss excess [4]	Bliss excess [5]	Bliss excess [6]	Bliss excess [7]	Bliss excess [8]	Bliss excess [9]
C=CCn1c(=O)c2cnc(Nc3ccc(N4CCN(C)CC4)cc3)nc2n1-c1cccc(C(C)(C)O)n1 [AZD1775] + CCc1c2c(nc3ccc(O)cc13)-c1cc3c(c(=O)n1C2)COC(=O)[C@]3(O)CC [SN-38] (first compound max 1 µM, partner max 0.3 µM)	0.0067	-0.0638	-0.0528	-0.0628	-0.0704	-0.0563	-0.0464	-0.0322	–	–	–
C=CCn1c(=O)c2cnc(Nc3ccc(N4CCN(C)CC4)cc3)nc2n1-c1cccc(C(C)(C)O)n1 [AZD1775] + Nc1ccn([C@@H]2O[C@H](CO)[C@@H](O)C2(F)F)c(=O)n1 [Gemcitabine] (first compound max 1 µM, partner max 0.3 µM)	0.0247	0.0276	-0.0232	-0.0467	0.0543	0.0165	-0.0225	0.0294	–	–	–
CN(CCO)CC[C@H](CSc1ccccc1)Nc1ccc(S(=O)(=O)NC(=O)c2ccc(N3CCC([C@@H](O)c4ccccc4-c4ccc(Cl)cc4)CC3)cc2)cc1S(=O)(=O)C(F)(F)F [AZD4320] + CS(=O)(=O)CCNCc1ccc(-c2ccc3ncnc(Nc4ccc(OCc5cccc(F)c5)c(Cl)c4)c3c2)o1 [Lapatinib] (first compound max 1 µM, 7x7, partner max 10 µM)	-0.0033	0.0438	0.0536	0.0285	0.0005	-0.0116	-0.0394	-0.0261	–	–	–
Cc1c2c(nn1C)CSCc1cc(n(C)n1)CSc1cc(c3ccccc3c1)OCCCc1c(C(=O)O)n(C)c3c-2c(Cl)ccc13 [AZD5991] + CC(=O)O[C@H]1C(=O)[C@@]2(C)[C@H]([C@H](OC(=O)c3ccccc3)[C@]3(O)C[C@H](OC(=O)[C@H](O)[C@@H](NC(=O)c4ccccc4)c4ccccc4)C(C)=C1C3(C)C)[C@]1(OC(C)=O)CO[C@@H]1C[C@@H]2O [Paclitaxel] (first compound max 1 µM, 7x7, partner max 3 µM)	0.0128	0.0286	0.0649	0.0097	0.0614	0.0435	0.0731	0.0501	–	–	–
Cc1c2c(nn1C)CSCc1cc(n(C)n1)CSc1cc(c3ccccc3c1)OCCCc1c(C(=O)O)n(C)c3c-2c(Cl)ccc13 [AZD5991] + CS(=O)(=O)CCNCc1ccc(-c2ccc3ncnc(Nc4ccc(OCc5cccc(F)c5)c(Cl)c4)c3c2)o1 [Lapatinib] (first compound max 1 µM, 7x7, partner max 10 µM)	0.0165	0.0807	0.0603	0.0199	0.0013	-0.043	-0.0131	-0.0227	–	–	–
Cc1c2c(nn1C)CSCc1cc(n(C)n1)CSc1cc(c3ccccc3c1)OCCCc1c(C(=O)O)n(C)c3c-2c(Cl)ccc13 [AZD5991] + Nc1ccn([C@@H]2O[C@H](CO)[C@@H](O)C2(F)F)c(=O)n1 [Gemcitabine] (first compound max 1 µM, 7x7, partner max 0.3 µM)	-0.0307	-0.0307	0.0365	-0.0232	-0.0035	-0.0217	-0.02	-0.0262	–	–	–
C[C@@H]1COCCN1c1cc(C2([S@](C)(=N)=O)CC2)nc(-c2ccnc3[nH]ccc23)n1 [AZD6738] + C1CC(C1)(C(=O)[O-])C(=O)[O-].N.N.[Pt+2] [Carboplatin] (first compound max 10 µM, 7x7, partner max 10 µM)	-0.0344	-0.0325	-0.0305	-0.0299	-0.0379	-0.0461	-0.0138	-0.0573	–	–	–
C[C@@H]1COCCN1c1cc(C2([S@](C)(=N)=O)CC2)nc(-c2ccnc3[nH]ccc23)n1 [AZD6738] + Nc1ccn([C@@H]2O[C@H](CO)[C@@H](O)C2(F)F)c(=O)n1 [Gemcitabine] (first compound max 10 µM, 7x7, partner max 0.3 µM)	0.0743	0.0407	0.0904	0.0225	-0.0243	0.0454	-0.0011	0.0334	–	–	–
C[C@@H](Nc1cc(F)cc(F)c1)c1cc(C(=O)N(C)C)cc2c(=O)cc(N3CCOCC3)oc12 [AZD8186] + C1CN(CCC1(C(=O)N[C@@H](CCO)C2=CC=C(C=C2)Cl)N)C3=NC=NC4=C3C=CN4 [AZD5363] (first compound max 10 µM, 7x7, partner max 10 µM)	-0.0043	-0.0909	-0.0152	-0.0322	-0.0411	-0.0135	-0.0401	0.0007	–	–	–
C[C@@H](Nc1cc(F)cc(F)c1)c1cc(C(=O)N(C)C)cc2c(=O)cc(N3CCOCC3)oc12 [AZD8186] + CC(=O)c1c(C)c2cnc(Nc3ccc(N4CCNCC4)cn3)nc2n(C2CCCC2)c1=O [Palbociclib] (first compound max 10 µM, 7x7, partner max 10 µM)	-0.0232	-0.0376	0.0225	-0.0163	0.0054	0.0238	-0.0421	0.063	–	–	–
C[C@@H](Oc1cc(-c2cnn(C3CCNCC3)c2)cnc1N)c1c(Cl)ccc(F)c1Cl [Crizotinib] + CC1=C(C(=CC=C1)Cl)NC(=O)C2=CN=C(S2)NC3=CC(=NC(=N3)C)N4CCN(CC4)CCO [Dasatinib] (first compound max 10 µM, 7x7, partner max 2 µM)	-0.0254	-0.0186	-0.0407	0.0392	0.051	0.0171	-0.0187	0.0615	–	–	–
C[C@@H](Oc1cc(-c2cnn(C3CCNCC3)c2)cnc1N)c1c(Cl)ccc(F)c1Cl [Crizotinib] + Cn1cnc2c(F)c(Nc3ccc(Br)cc3Cl)c(C(=O)NOCCO)cc21 [Selumetinib] (first compound max 10 µM, 7x7, partner max 10 µM)	-0.0078	-0.0115	0.0191	-0.0338	0.0077	0.0065	0.0331	-0.0786	–	–	–
CS(=O)(=O)CCNCc1ccc(-c2ccc3ncnc(Nc4ccc(OCc5cccc(F)c5)c(Cl)c4)c3c2)o1 [Lapatinib] + Cn1cnc2c(F)c(Nc3ccc(Br)cc3Cl)c(C(=O)NOCCO)cc21 [Selumetinib] (first compound max 10 µM, 7x7, partner max 10 µM)	-0.0455	-0.0636	0.0408	-0.0077	-0.018	-0.0193	-0.045	-0.0343	–	–	–
CS(=O)(=O)CCNCc1ccc(-c2ccc3ncnc(Nc4ccc(OCc5cccc(F)c5)c(Cl)c4)c3c2)o1 [Lapatinib] + NC1(c2ccc(-c3nc4ccn5c(=O)[nH]nc5c4cc3-c3ccccc3)cc2)CCC1 [MK-2206] (first compound max 10 µM, 7x7, partner max 10 µM)	-0.0221	-0.0585	0.024	-0.0297	-0.027	-0.0275	-0.0139	-0.0376	0.0023	-0.0339	0.0185
O=C(c1cc(Cc2n[nH]c(=O)c3ccccc23)ccc1F)N1CCN(C(=O)C2CC2)CC1 [Olaparib] + CC1(C)CCC(CN2CCN(c3ccc(C(=O)NS(=O)(=O)c4ccc(NCC5CCOCC5)c([N+](=O)[O-])c4)c(Oc4cnc5[nH]ccc5c4)c3)CC2)=C(c2ccc(Cl)cc2)C1 [Venetoclax] (first compound max 10 µM, 7x7, partner max 1 µM)	-0.0543	-0.0455	-0.0472	-0.0325	-0.0044	-0.0533	-0.0622	-0.0396	–	–	–
O=C(c1cc(Cc2n[nH]c(=O)c3ccccc23)ccc1F)N1CCN(C(=O)C2CC2)CC1 [Olaparib] + CN(CC[C@H](CSC1=CC=CC=C1)NC2=C(C=C(C=C2)S(=O)(=O)NC(=O)C3=CC=C(C=C3)N4CCC(CC4)[C@H](C5=CC=CC=C5C6=CC=C(C=C6)Cl)O)S(=O)(=O)C(F)(F)F)CCO [AZD4320] (first compound max 10 µM, 7x7, partner max 1 µM)	-0.0215	-0.0411	0.0129	0.0005	-0.0295	-0.0535	-0.0864	-0.0335	–	–	–
O=C(c1cc(Cc2n[nH]c(=O)c3ccccc23)ccc1F)N1CCN(C(=O)C2CC2)CC1 [Olaparib] + COc1nnc2ccc(N3CCC(c4ccc(OCCN5CCN(C)C(=O)[C@H]5C)cc4)CC3)nn12 [AZD5153] (first compound max 10 µM, 7x7, partner max 1 µM)	-0.0304	-0.0676	-0.0402	-0.0553	-0.0856	-0.0506	-0.0312	-0.0658	–	–	–
O=C(c1cc(Cc2n[nH]c(=O)c3ccccc23)ccc1F)N1CCN(C(=O)C2CC2)CC1 [Olaparib] + Cc1c2c(nn1C)CSCc1cc(n(C)n1)CSc1cc(c3ccccc3c1)OCCCc1c(C(=O)O)n(C)c3c-2c(Cl)ccc13 [AZD5991] (first compound max 10 µM, 7x7, partner max 1 µM)	-0.0327	-0.052	-0.0185	0.0329	0.0369	-0.0572	-0.0012	-0.016	–	–	–
Cc1nc(-c2cn3c(n2)-c2ccc(-c4cnn(C(C)(C)C(N)=O)c4)cc2OCC3)n(C(C)C)n1 [Taselisib] + O=C(Nc1ccc2[nH]nc(-c3ccncc3)c2c1)[C@@H]1CCN(CC(=O)N2CCN(c3ccc(-c4ncccn4)cc3)CC2)C1 [SCH772984] (first compound max 10 µM, 7x7, partner max 5 µM)	0.0543	-0.0001	0.0593	0.0205	-0.0087	0.0518	0.0502	0.0294	–	–	–
CC1(C)CCC(CN2CCN(c3ccc(C(=O)NS(=O)(=O)c4ccc(NCC5CCOCC5)c([N+](=O)[O-])c4)c(Oc4cnc5[nH]ccc5c4)c3)CC2)=C(c2ccc(Cl)cc2)C1 [Venetoclax] + CS(=O)(=O)CCNCc1ccc(-c2ccc3ncnc(Nc4ccc(OCc5cccc(F)c5)c(Cl)c4)c3c2)o1 [Lapatinib] (first compound max 1 µM, 7x7, partner max 10 µM)	-0.0431	-0.0551	-0.0318	-0.0328	-0.0363	-0.0409	-0.0688	-0.0509	–	–	–
